Test results published in US11419806B2, “Prebiotic oral care methods using a saccharide” (Colgate-Palmolive Company, priority 2013, dated 2022).

Legend:
Assay in all cases: Twenty-four hour biofilm growth (crystal violet)
Assay type in all cases: cell-based
A. naeslundii = system: A. naeslundii
Experimental: (§1) The increase in biofilm formation of the tested bacteria in response to selected saccharides (D-turanose, D-lactitol, myo-inositol, and N-acetyl-D-mannosamine) was investigated by setting up biofilm growth assays in a nutritionally rich medium (brain heart infusion broth (BHI), Oxoid), over 24 hours. Late exponential growth phase liquid cultures were prepared by transferring the respective bacterium from blood agar plates to BHI and overnight incubation at 37° C. in an anaerobic atmosphere for A. viscosus, V. parvula, P. gingivalis, P. intermedia, T. forsythia, A. naeslundii, and C. sputigena, and in a 5% CO2 environment for S. salivarius, S. sanguinis, S. mitis, A. actinomycetemcomitans, S. mutans, and S. gordonii. Overnight cultures were transferred to BHI and adjusted to a concentration of 1×10^7 CFU/ml by measuring the optical density at 600 nm (OD600) (BioRad SmartSpec 3000). For each strain, 200 μl of the bacterial suspension was added to a 96-well plate containing 20 μl of the respective saccharides. Final concentrations of the saccharides were set to 5, 10, 20 and 25 μmol/ml. […] Additionally, for each bacterium tested, a background control, to correct for background staining, was added. This background control contained the bacterium tested and 0.03 weight % chlorhexidine, as an antiseptic. Plates were incubated as previously described. After 24 hrs the supernatant was removed from the wells of the plates. The wells were washed twice with 1×100 μL PBS (phosphate buffered saline), fixed for 20 minutes with 96% vol. ethanol (96% vol. solution in water) and the biofilm retained at the bottom of the wells was stained with 1 weight % crystal violet (1 weight % solution in water). The bound dye was dissolved with 5% vol. acetic acid (5% vol. solution in water). Quantification of the stained biofilm was performed by measuring the absorbance at 630 nm using a Multiskan Ascent microplate reader (Thermo Scientific).
(§2) The experiment was carried out on three different days (thus providing 3 biological replicas) and each day the experiment was carried out in quadruple (thus providing 4 technical replicas) for each combination of bacterium with saccharide and for each control. For each day and for each combination, the average (mean) of the values obtained (as detailed above) for the four technical replicas was calculated to provide a single value for each combination on each day. The values shown in Tables 7a, 7b, 8a, 8b, below, are the average (mean) of the three single values obtained for each combination of bacterium with saccharide.

A. actinomycetemcomitans = system: A. actinomycetemcomitans
Experimental: as §1, §2

C. sputigena = system: C. sputigena
Experimental: as §1, §2

S. sanguinis = system: S. sanguinis
Experimental: as §1, §2

A. viscosus = system: A. viscosus
Experimental: as §1, §2

P. intermedia = system: P. intermedia
Experimental: as §1, §2

V. parvula = system: V. parvula
Experimental: as §1, §2

S. mitis = system: S. mitis
Experimental: as §1, §2

S. salivarius = system: S. salivarius
Experimental: as §1, §2

T. forsythia = system: T. forsythia
Experimental: as §1, §2

P. gingivalis = system: P. gingivalis
Experimental: as §1, §2

S. gordonii = system: S. gordonii
Experimental: as §1, §2

S. mutans = settings: S mutans
Experimental: as §1, §2

O[C@H]1[C@H](O)[C@@H](O)[C@H](O)[C@@H](O)[C@H]1O [Myo-Inositol, (1R,2R,3S,4S,5R,6S)-cyclohexane-1,2,3,4,5,6-hexol]
biofilm growth: OD 630 nm at 24 hrs divided by OD of control (control = 1) (A. naeslundii; 5 μmol/ml): 1.0309
biofilm growth: OD 630 nm at 24 hrs divided by OD of control (control = 1) (A. naeslundii; 10 μmol/ml): 1.0353
biofilm growth: OD 630 nm at 24 hrs divided by OD of control (control = 1) (A. naeslundii; 20 μmol/ml): 1.0270
biofilm growth: OD 630 nm at 24 hrs divided by OD of control (control = 1) (A. naeslundii; 25 μmol/ml): 1.0456
biofilm growth: OD 630 nm at 24 hrs divided by OD of control (control = 1) (A. actinomycetemcomitans; 5 μmol/ml): 0.8323
biofilm growth: OD 630 nm at 24 hrs divided by OD of control (control = 1) (A. actinomycetemcomitans; 10 μmol/ml): 0.8378
biofilm growth: OD 630 nm at 24 hrs divided by OD of control (control = 1) (A. actinomycetemcomitans; 20 μmol/ml): 0.9661
biofilm growth: OD 630 nm at 24 hrs divided by OD of control (control = 1) (A. actinomycetemcomitans; 25 μmol/ml): 0.9898
biofilm growth: OD 630 nm at 24 hrs divided by OD of control (control = 1) (C. sputigena; 5 μmol/ml): 0.9276
biofilm growth: OD 630 nm at 24 hrs divided by OD of control (control = 1) (C. sputigena; 10 μmol/ml): 0.9522
biofilm growth: OD 630 nm at 24 hrs divided by OD of control (control = 1) (C. sputigena; 20 μmol/ml): 0.9758
biofilm growth: OD 630 nm at 24 hrs divided by OD of control (control = 1) (C. sputigena; 25 μmol/ml): 0.8233
biofilm growth: OD 630 nm at 24 hrs divided by OD of control (control = 1) (S. sanguinis; 5 μmol/ml): 2.4209
biofilm growth: OD 630 nm at 24 hrs divided by OD of control (control = 1) (S. sanguinis; 10 μmol/ml): 2.3658
biofilm growth: OD 630 nm at 24 hrs divided by OD of control (control = 1) (S. sanguinis; 20 μmol/ml): 2.1878
biofilm growth: OD 630 nm at 24 hrs divided by OD of control (control = 1) (S. sanguinis; 25 μmol/ml): 2.1240
biofilm growth: OD 630 nm at 24 hrs divided by OD of control (control = 1) (A. viscosus; 5 μmol/ml): 0.8136
biofilm growth: OD 630 nm at 24 hrs divided by OD of control (control = 1) (A. viscosus; 10 μmol/ml): 0.8735
biofilm growth: OD 630 nm at 24 hrs divided by OD of control (control = 1) (A. viscosus; 20 μmol/ml): 0.8117
biofilm growth: OD 630 nm at 24 hrs divided by OD of control (control = 1) (A. viscosus; 25 μmol/ml): 0.8167
biofilm growth: OD 630 nm at 24 hrs divided by OD of control (control = 1) (P. intermedia; 5 μmol/ml): 1.1539
biofilm growth: OD 630 nm at 24 hrs divided by OD of control (control = 1) (P. intermedia; 10 μmol/ml): 1.2210
biofilm growth: OD 630 nm at 24 hrs divided by OD of control (control = 1) (P. intermedia; 20 μmol/ml): 1.1660
biofilm growth: OD 630 nm at 24 hrs divided by OD of control (control = 1) (P. intermedia; 25 μmol/ml): 1.0417
biofilm growth: OD 630 nm at 24 hrs divided by OD of control (control = 1) (V. parvula; 5 μmol/ml): 1.0021
biofilm growth: OD 630 nm at 24 hrs divided by OD of control (control = 1) (V. parvula; 10 μmol/ml): 1.1121
biofilm growth: OD 630 nm at 24 hrs divided by OD of control (control = 1) (V. parvula; 20 μmol/ml): 1.0036
biofilm growth: OD 630 nm at 24 hrs divided by OD of control (control = 1) (V. parvula; 25 μmol/ml): 1.0399
biofilm growth: OD 630 nm at 24 hrs divided by OD of control (control = 1) (S. mitis; 5 μmol/ml): 1.2433
biofilm growth: OD 630 nm at 24 hrs divided by OD of control (control = 1) (S. mitis; 10 μmol/ml): 1.0616
biofilm growth: OD 630 nm at 24 hrs divided by OD of control (control = 1) (S. mitis; 20 μmol/ml): 1.1754
biofilm growth: OD 630 nm at 24 hrs divided by OD of control (control = 1) (S. mitis; 25 μmol/ml): 1.1357
biofilm growth: OD 630 nm at 24 hrs divided by OD of control (control = 1) (S. salivarius; 5 μmol/ml): 0.8358
biofilm growth: OD 630 nm at 24 hrs divided by OD of control (control = 1) (S. salivarius; 10 μmol/ml): 0.9694
biofilm growth: OD 630 nm at 24 hrs divided by OD of control (control = 1) (S. salivarius; 20 μmol/ml): 0.8119
biofilm growth: OD 630 nm at 24 hrs divided by OD of control (control = 1) (S. salivarius; 25 μmol/ml): 0.8202
biofilm growth: OD 630 nm at 24 hrs divided by OD of control (control = 1) (T. forsythia; 5 μmol/ml): 0.6841
biofilm growth: OD 630 nm at 24 hrs divided by OD of control (control = 1) (T. forsythia; 10 μmol/ml): 0.6396
biofilm growth: OD 630 nm at 24 hrs divided by OD of control (control = 1) (T. forsythia; 20 μmol/ml): 0.7688
biofilm growth: OD 630 nm at 24 hrs divided by OD of control (control = 1) (T. forsythia; 25 μmol/ml): 0.6940
biofilm growth: OD 630 nm at 24 hrs divided by OD of control (control = 1) (P. gingivalis; 5 μmol/ml): 0.9325
biofilm growth: OD 630 nm at 24 hrs divided by OD of control (control = 1) (P. gingivalis; 10 μmol/ml): 0.9657
biofilm growth: OD 630 nm at 24 hrs divided by OD of control (control = 1) (P. gingivalis; 20 μmol/ml): 0.9448
biofilm growth: OD 630 nm at 24 hrs divided by OD of control (control = 1) (P. gingivalis; 25 μmol/ml): 1.0290
biofilm growth: OD 630 nm at 24 hrs divided by OD of control (control = 1) (S. gordonii; 5 μmol/ml): 0.6178
biofilm growth: OD 630 nm at 24 hrs divided by OD of control (control = 1) (S. gordonii; 10 μmol/ml): 0.6384
biofilm growth: OD 630 nm at 24 hrs divided by OD of control (control = 1) (S. gordonii; 20 μmol/ml): 0.6650
biofilm growth: OD 630 nm at 24 hrs divided by OD of control (control = 1) (S. gordonii; 25 μmol/ml): 0.6716
biofilm growth: OD 630 nm at 24 hrs divided by OD of control (control = 1) (S. mutans; 5 μmol/ml): 0.9177
biofilm growth: OD 630 nm at 24 hrs divided by OD of control (control = 1) (S. mutans; 10 μmol/ml): 1.0152
biofilm growth: OD 630 nm at 24 hrs divided by OD of control (control = 1) (S. mutans; 20 μmol/ml): 1.1995
biofilm growth: OD 630 nm at 24 hrs divided by OD of control (control = 1) (S. mutans; 25 μmol/ml): 1.4107
